Several values for one entry are separate records, joined by “and”; a condition that tells them apart may be missing. Equal entries are not always repeated.
Assays:
[1] = Struck et al., J. Med. Chem., 9, 414-416 (1966); cited from earlier work
[2] = maximally tolerated dose in mice, ip qD × 5 regimen; conditions: mouse, in vivo, B6D2F female mice
Method: (§1) 10^6 P388 leukemia cells are inoculated ip in B6D2F1 mice. Twenty-four hours later, if the tumor inoculum proves to be free of bacterial contamination (as determined by 24 hours incubation in thioglycollate broth), animals are randomized into groups of 6 and housed in shoebox cages. The compound to be evaluated is dissolved in a minimal volume of either N,N-dimethylacetamide (DMA) or 95% ethanol (depending upon solubility). An equal volume of saline is added; if the drug comes out of solution an equal volume of polyethoxylated castor oil is added and then saline qs to a concentration such that the desired dose is delivered in 0.5 ml. The final concentration of DMA, ethanol and polyethoxylated castor oil is […]. Dilutions for lower doses are made with saline so there is a decreasing proportion of organic solvents in the vehicle with decreasing dosage. These vehicles provide soluble formulations (or suspensions). Formulations are prepared immediately prior to injection. The compound is administered ip on Days 1 through 5 (i.e. treatment is initiated 24 hrs after tumor inoculation). Each experiment includes three groups of 6 animals as untreated controls and animals treated with a positive control, cisplatin, at two dose levels. Animals are weighed as a group on Days 1, 5 and 9 and average weight change (Δwt.) is used as a reflection of toxicity. Each experiment also includes an inoculum titration--groups of 8 mice inoculated ip with 10^5 to […] P388 leukemia cells. The titration is used to calculate cell kill achieved by treatment with drugs. Animals are monitored daily for mortality and experiments are terminated after 45 days. The endpoint is median survival time (MST) and increase in lifespan (ILS) which is the percentage of increase in MST relative to untreated controls. Untreated controls inoculated ip with 10^6 P388 leukemia cells generally survive for a median of 9 or 11 days. A drug is considered active if it produces ≥25 percent ILS.
^(a) maximally tolerated dose for B6D2F female mice on an ip qD

P388 leukemia = experiment: in vivo ip P388 lymphocytic leukemia mouse model (increase in lifespan); design: species or system mouse (B6D2F1); conditions: mice bearing ip P388 leukemia; ip Days 1-5; figures separated by slashes are from separate experiments; active if ≥25 percent ILS
Excerpt: P388 lymphocytic leukemia is currently the most widely used animal tumor model for screening for antitumor agents and for detailed evaluation of active compounds. This tumor system is widely accepted as an antitumor agent screening tool because it is sensitive to virtually all of the clinically active antineoplastic agents; quantitative and reproducible; amenable for large-scale screening; and predictive for activity in other animal tumor models.
as §1
^(b) maximum increase in lifespan produced in mice bearing ip P388
leukemia (figures separated by slashes indicate data generated in seperat

Row | SMILES | cytotoxic activity [1] | MTD [2] [mg/kg] | ILS (max) (maximum increase in lifespan) (P388 leukemia)
1 | c1ccc(P(CCP(c2ccccc2)c2ccccc2)c2ccccc2)cc1 [1,2-bis(diphenylphosphino)ethane] | cytotoxic activity | – | –
2 | c1ccc(P(CCP(c2ccccn2)c2ccccn2)c2ccccn2)nc1 [Compound 1, 1,2-Bis(di-2-pyridylphosphino)ethane] | – | 16 | 30% and 20%
3 | c1cc(P(CCP(c2ccncc2)c2ccncc2)c2ccncc2)ccn1 [Compound 2, 1,2-Bis(di-4-pyridylphosphino)ethane] | – | 32 | 35% and 37%
4 | c1csc(P(CCP(c2cccs2)c2cccs2)c2cccs2)c1 [Compound 3, 1,2-Bis(di-2-thienylphosphino)ethane] | – | 16 | 60% and 55%
5 | c1coc(P(CCP(c2ccco2)c2ccco2)c2ccco2)c1 [Compound 4, 1,2-Bis(di-2-furylphosphino)ethane] | – | 64 | 60% and 30% and 50%

Reference: patent US4716230A, “Certain bis(di-2 or 4-pyridyl-phosphino) alkanes #10 having anti-tumor properties” (Smithkline Beckman Corporation, priority 1986, dated 1987)
